Data on seven molecules can be found in ChEMBL document CHEMBL1145244, “In vitro advanced antimycobacterial screening of isoniazid-related hydrazones, hydrazides and cyanoboranes: part 14” (2005).

Structures are written as SMILES. ≈ marks a conversion by molar mass, not a printed value. Where only a bound is given, the exact number is not on record here.

Format in all cases: functional
Test [1] has as its system Mycobacterium tuberculosis. In words: In vitro antimycobacterial activity against ethionamide-resistant Mycobacterium tuberculosis strain.
The test system of test [2] is Mycobacterium tuberculosis. In words: In vitro antimycobacterial activity against rifampin-resistant Mycobacterium tuberculosis strain.
Test [3] has as its system Mycobacterium tuberculosis. Description: In vitro antimycobacterial activity against thiacetazone resistant Mycobacterium tuberculosis strain.
The subject of test [4] is Mycobacterium tuberculosis. In words: In vitro antimycobacterial activity against isoniazid-resistant Mycobacterium tuberculosis strain.
In test [5] the test system is Mycobacterium tuberculosis. In words: In vitro antimycobacterial activity against ethambutol-resistant Mycobacterium tuberculosis strain.
In test [6] the test system is Mycobacterium tuberculosis. Description: Minimum inhibitory concentration against isoniazid-resistant Mycobacterium tuberculosis strain.

Broadly, the MIC is the least concentration at which growth counts as inhibited. For orientation: MBC means the smallest concentration meeting the test's criterion for killing. Low readings indicate greater bactericidal potency, high ones weaker bactericidal potency.

For `C/C(=N\NC(=O)c1ccncc1)C(F)(F)F`, the MIC is over 1.6 µg/mL in test [1]; 0.2 µg/mL (≈ 0.865 µM) in test [2]; over 1.6 µg/mL in test [3]; over 1.6 µg/mL in test [4]; 0.2 µg/mL (≈ 0.865 µM) in test [5]. Also, the results for the MBC in test [2] and in test [4] were 0.2 µg/mL (≈ 0.865 µM) and over 1.6 µg/mL, respectively.
For the molecule `C/C(=N\NC(=O)c1ccncc1)c1cccc(/C(C)=N/NC(=O)c2ccncc2)n1`, the MIC was over 12.5 µg/mL in test [1]; at most 0.2 µg/mL in test [2]; over 12.5 µg/mL in test [3]; over 12.5 µg/mL in test [4]; at most 0.2 µg/mL in test [5]. Moreover, the figures for the MBC in test [2] and in test [4] were 6.25 µg/mL (≈ 15.6 µM) and 12.5 µg/mL (≈ 31.1 µM), respectively.
Turning to `C/C=N/NC(=O)c1ccncc1`, the MIC was 0.375 µg/mL (≈ 2.3 µM) in test [1]; 0.05 µg/mL (≈ 0.306 µM) in test [2]; over 0.75 µg/mL in test [3]; over 0.75 µg/mL in test [4]; 0.025 µg/mL (≈ 0.153 µM) in test [5]. The values for the minimum bactericidal concentration (MBC) in test [2] and in test [4] were 0.05 µg/mL (≈ 0.306 µM) and over 0.75 µg/mL, respectively.
`NNC(=O)c1ccncc1` [ISONIAZID] came in with an MIC in test [6] of over 0.2 µg/mL. Also, in test [4], the minimum bactericidal concentration (MBC) was over 1.6 µg/mL.
Take `N#CC[n+]1ccc(C(=O)NNCC(F)(F)F)cc1`: the MIC was over 25 µg/mL in test [1]; 12.5 µg/mL in test [2]; over 25 µg/mL in test [3]; over 25 µg/mL in test [4]; 12.5 µg/mL in test [5]. Further, the minimum bactericidal concentration (MBC) in test [2] was 6.25 µg/mL; in test [4], over 25 µg/mL.
Take `N#CC[n+]1ccc(C(=O)NNCc2ccccc2)cc1`: the MIC was over 25 µg/mL in test [1], over 25 µg/mL in test [3], over 25 µg/mL in test [4] and 6.25 µg/mL in test [5]. Further, the minimum bactericidal concentration (MBC) in test [4] is over 25 µg/mL.
As for `O=C(N/N=C/c1ccc(C(F)(F)F)cc1)c1ccncc1`, the MIC in test [1] is 1.6 µg/mL (≈ 5.46 µM); in test [2] it was 0.2 µg/mL (≈ 0.682 µM); in test [3], over 1.6 µg/mL; in test [4], over 1.6 µg/mL; in test [5] it was 0.2 µg/mL (≈ 0.682 µM). Also, the MBC in test [2] is 0.4 µg/mL (≈ 1.36 µM); in test [4], over 1.6 µg/mL.
